Data taken from ChEMBL document CHEMBL1208739, “Synthesis and SAR of azolopyrimidines as potent and selective dipeptidyl peptidase-4 (DPP4) inhibitors for type 2 diabetes” (Bioorg Med Chem Lett, 2010).

How the values were obtained:
Dipeptidyl peptidase 9 = Dipeptidyl peptidase 9 (Homo sapiens, UniProt Q86TI2); experiment: Inhibition of human DPP89
Dipeptidyl peptidase 8 = Dipeptidyl peptidase 8 (Homo sapiens, UniProt Q6V1X1); experiment: Inhibition of human DPP8
[1] = target: Voltage-gated inwardly rectifying potassium channel KCNH2 (Homo sapiens, UniProt Q12809); experiment: Inhibition of human ERG
Chain of Voltage-gated inwardly rectifying potassium channel KCNH2 (Q12809 whole entry): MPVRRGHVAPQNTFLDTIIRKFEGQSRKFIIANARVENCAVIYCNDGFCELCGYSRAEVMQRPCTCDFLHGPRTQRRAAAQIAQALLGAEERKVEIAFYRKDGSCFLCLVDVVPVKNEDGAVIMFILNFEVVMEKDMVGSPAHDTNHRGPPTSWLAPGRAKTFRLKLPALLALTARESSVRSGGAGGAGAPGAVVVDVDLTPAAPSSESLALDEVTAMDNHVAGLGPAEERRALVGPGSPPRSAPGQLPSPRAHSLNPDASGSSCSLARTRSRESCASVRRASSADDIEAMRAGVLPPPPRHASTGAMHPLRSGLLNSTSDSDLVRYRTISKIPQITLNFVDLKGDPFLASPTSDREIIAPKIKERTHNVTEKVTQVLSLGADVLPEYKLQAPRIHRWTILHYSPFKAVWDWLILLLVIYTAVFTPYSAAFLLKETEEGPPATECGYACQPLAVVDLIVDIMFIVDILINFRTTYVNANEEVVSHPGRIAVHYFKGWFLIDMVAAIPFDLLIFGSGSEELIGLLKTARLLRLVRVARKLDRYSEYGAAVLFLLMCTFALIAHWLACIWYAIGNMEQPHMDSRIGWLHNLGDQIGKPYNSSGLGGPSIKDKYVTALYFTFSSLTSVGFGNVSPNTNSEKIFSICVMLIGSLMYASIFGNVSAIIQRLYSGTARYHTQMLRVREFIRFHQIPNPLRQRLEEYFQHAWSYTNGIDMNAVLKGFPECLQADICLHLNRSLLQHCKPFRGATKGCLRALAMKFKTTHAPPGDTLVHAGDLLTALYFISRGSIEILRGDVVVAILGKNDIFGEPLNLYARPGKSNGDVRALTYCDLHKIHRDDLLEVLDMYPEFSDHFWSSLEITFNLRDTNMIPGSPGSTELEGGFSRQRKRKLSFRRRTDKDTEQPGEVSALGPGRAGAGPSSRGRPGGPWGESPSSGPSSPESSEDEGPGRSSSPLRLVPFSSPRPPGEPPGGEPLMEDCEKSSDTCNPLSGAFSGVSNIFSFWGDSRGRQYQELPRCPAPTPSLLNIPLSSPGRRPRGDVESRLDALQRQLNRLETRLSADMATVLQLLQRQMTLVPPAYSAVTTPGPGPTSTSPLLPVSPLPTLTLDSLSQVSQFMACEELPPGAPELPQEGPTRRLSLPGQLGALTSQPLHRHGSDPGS

Cytochrome P450 3A4 = Cytochrome P450 3A4 (Homo sapiens, UniProt P08684); experiment: inhibition of CYP3A4; format: ADME
Chain of Cytochrome P450 3A4 (P08684 whole entry): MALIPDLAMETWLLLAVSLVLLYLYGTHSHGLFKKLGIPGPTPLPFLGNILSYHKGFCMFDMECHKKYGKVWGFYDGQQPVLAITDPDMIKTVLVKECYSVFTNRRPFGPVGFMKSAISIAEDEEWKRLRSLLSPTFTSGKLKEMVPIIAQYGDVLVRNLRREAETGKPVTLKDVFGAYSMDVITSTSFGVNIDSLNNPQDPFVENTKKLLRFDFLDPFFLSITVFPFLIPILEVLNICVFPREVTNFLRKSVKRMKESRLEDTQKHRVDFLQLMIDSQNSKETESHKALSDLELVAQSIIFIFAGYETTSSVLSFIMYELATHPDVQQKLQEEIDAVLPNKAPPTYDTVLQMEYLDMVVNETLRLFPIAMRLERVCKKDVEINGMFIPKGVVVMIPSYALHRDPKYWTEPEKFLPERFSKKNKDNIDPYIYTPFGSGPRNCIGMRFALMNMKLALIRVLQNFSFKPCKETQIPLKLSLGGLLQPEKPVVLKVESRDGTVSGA

Cytochrome P450 2C9 = Cytochrome P450 2C9 (Homo sapiens, UniProt P11712); experiment: inhibition of CYP2C9; format: ADME
Chain of Cytochrome P450 2C9 (P11712 whole entry): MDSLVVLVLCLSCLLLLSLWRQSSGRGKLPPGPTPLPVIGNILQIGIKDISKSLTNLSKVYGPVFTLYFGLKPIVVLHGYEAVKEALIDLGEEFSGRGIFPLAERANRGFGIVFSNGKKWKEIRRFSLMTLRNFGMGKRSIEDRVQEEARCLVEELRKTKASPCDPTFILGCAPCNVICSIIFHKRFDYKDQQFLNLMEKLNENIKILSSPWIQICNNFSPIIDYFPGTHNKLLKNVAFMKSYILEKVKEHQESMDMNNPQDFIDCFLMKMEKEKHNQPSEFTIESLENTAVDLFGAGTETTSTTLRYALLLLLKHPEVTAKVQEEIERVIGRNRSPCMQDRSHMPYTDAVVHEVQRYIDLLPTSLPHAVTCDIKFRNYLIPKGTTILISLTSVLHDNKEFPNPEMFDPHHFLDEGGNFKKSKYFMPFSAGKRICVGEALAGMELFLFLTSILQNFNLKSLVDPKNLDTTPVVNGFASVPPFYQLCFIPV

Cytochrome P450 2C19 = Cytochrome P450 2C19 (Homo sapiens, UniProt P33261); experiment: inhibition of CYP2C19; format: ADME
Chain of Cytochrome P450 2C19 (P33261 whole entry): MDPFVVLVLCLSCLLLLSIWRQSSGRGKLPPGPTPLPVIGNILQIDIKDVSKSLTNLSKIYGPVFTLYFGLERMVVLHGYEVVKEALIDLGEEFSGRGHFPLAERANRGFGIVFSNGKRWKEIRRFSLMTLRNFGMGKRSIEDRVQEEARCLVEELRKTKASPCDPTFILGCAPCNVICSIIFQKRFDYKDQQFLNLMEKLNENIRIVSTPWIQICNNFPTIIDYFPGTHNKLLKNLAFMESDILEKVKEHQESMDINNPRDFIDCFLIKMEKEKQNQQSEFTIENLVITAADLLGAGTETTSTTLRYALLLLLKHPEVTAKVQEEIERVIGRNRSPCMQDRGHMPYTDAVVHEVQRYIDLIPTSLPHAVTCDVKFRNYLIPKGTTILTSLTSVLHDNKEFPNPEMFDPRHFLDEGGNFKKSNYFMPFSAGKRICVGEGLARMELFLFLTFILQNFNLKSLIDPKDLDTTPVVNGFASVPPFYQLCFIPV

Cytochrome P450 1A2 = target: T1, Cytochrome P450 1A2 (Homo sapiens, UniProt P05177); experiment: inhibition of CYP1A2; format: ADME
T1 sequence (P05177 whole entry): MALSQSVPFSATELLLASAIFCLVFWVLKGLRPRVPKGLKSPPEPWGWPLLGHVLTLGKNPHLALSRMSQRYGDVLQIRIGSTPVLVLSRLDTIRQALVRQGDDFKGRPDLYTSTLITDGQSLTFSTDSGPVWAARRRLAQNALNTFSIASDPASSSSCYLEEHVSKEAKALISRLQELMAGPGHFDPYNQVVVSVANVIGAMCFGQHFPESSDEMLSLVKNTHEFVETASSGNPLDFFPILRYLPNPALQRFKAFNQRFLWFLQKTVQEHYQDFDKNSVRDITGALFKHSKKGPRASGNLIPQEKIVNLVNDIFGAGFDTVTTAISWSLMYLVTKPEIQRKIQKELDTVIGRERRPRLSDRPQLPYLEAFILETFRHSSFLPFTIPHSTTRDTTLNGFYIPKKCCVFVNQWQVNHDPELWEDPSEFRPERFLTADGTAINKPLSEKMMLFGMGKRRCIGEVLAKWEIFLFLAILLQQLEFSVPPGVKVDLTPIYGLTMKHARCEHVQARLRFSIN

Mus musculus [2] = experiment: Antidiabetic activity in ob/ob mouse assessed as increase in mean insulin level at 3 umol/kg, po measured after 15 mins of glucose challenge by oral glucose tolerance test; format: functional
Mus musculus [3] = experiment: Antidiabetic activity in ob/ob mouse assessed as increase in mean insulin level at 10 umol/kg, po measured after 15 mins of glucose challenge by oral glucose tolerance test; format: functional

Chain of Dipeptidyl peptidase 9 (Q86TI2 whole entry): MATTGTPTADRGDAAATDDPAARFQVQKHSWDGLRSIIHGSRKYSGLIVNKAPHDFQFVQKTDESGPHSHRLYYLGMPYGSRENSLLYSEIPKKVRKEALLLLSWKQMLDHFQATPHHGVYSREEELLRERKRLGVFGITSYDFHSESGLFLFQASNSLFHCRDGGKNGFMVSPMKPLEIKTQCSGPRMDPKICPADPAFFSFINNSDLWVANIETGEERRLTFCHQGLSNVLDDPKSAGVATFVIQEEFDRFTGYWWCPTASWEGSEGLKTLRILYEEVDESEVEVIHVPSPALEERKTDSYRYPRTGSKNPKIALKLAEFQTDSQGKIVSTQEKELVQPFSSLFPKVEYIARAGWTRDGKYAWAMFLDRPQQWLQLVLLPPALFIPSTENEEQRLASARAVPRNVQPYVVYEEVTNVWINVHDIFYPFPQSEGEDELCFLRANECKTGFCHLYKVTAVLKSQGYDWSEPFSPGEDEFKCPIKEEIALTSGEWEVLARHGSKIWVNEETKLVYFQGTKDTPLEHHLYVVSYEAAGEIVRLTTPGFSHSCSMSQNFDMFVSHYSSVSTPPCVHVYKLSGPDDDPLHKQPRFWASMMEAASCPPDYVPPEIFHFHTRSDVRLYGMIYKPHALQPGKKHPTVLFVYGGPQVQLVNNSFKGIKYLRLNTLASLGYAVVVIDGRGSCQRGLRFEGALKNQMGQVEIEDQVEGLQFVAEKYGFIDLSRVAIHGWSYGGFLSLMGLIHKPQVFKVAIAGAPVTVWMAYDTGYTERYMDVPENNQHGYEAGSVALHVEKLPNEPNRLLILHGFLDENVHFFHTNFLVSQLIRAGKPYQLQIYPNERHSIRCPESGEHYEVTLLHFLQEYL
Chain of Dipeptidyl peptidase 8 (Q6V1X1 whole entry): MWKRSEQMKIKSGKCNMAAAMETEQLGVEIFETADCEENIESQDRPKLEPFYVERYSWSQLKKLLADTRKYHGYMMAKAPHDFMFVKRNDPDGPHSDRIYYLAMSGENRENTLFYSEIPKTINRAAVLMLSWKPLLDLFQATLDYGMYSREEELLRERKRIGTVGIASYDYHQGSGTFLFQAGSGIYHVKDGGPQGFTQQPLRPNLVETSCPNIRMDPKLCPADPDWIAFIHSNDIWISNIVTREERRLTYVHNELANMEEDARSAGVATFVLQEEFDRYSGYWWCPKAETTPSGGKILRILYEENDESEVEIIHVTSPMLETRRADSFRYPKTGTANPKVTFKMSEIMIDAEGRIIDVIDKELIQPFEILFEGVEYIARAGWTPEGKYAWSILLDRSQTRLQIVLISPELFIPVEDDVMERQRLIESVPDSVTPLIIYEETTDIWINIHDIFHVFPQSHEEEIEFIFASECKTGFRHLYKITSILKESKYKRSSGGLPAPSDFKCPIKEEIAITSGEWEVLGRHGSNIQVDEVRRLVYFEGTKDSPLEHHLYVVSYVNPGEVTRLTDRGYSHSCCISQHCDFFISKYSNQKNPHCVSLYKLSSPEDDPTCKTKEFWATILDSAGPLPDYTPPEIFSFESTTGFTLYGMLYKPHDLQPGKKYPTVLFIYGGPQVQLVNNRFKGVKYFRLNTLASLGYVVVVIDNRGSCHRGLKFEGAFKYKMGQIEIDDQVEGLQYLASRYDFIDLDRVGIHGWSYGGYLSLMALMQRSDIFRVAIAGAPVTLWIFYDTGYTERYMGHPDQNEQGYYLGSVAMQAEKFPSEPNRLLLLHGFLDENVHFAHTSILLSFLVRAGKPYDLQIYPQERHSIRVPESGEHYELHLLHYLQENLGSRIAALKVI

Row | Structure (SMILES) | Ki (Dipeptidyl peptidase 9) | Ki (Dipeptidyl peptidase 8) | also measured
1 | COCCN(C)c1nc2nc(C)c(CN)c(-c3ccc(Cl)cc3Cl)n2n1 | > 30 µM |  | 
2 | CCN(C)c1nc2nc(C)c(CN)c(-c3ccc(Cl)cc3Cl)n2n1 | > 30 µM | > 30 µM | 
3 | CCN(CC)c1nc2nc(C)c(CN)c(-c3ccc(Cl)cc3Cl)n2n1 | > 30 µM | > 30 µM | 
4 | Cc1nc2nc(-c3ccccc3)nn2c(-c2ccc(Cl)cc2Cl)c1CN | > 30 µM | > 30 µM | inhibition (INH) [1]: 85%
5 | Cc1nc2nc(N3CCN(C(=O)OC(C)(C)C)CC3)nn2c(-c2ccc(Cl)cc2Cl)c1CN | > 30 µM | > 30 µM | 
6 | Cc1nc2nccn2c(-c2ccc(Cl)cc2Cl)c1CN | > 30 µM | > 30 µM | 
7 | Cc1nc2nc(-c3ccccc3)cn2c(-c2ccc(Cl)cc2Cl)c1CN | > 30 µM | > 30 µM | inhibition (INH) [1]: 74%; IC50 (Cytochrome P450 3A4): 1 µM; IC50 (Cytochrome P450 2C9): > 40 µM; IC50 (Cytochrome P450 2C19): 13 µM; IC50 (Cytochrome P450 1A2; read-out: IC50): 19 µM; Activity (Mus musculus [2]): 51%; Activity (Mus musculus [3]): 74%
8 | Cc1nc2cc(-c3ccc(Cl)cc3)nn2c(-c2ccc(Cl)cc2Cl)c1CN | > 30 µM |  | 
9 | COC(=O)c1nc2nc(C)c(CN)c(-c3ccc(Cl)cc3Cl)n2n1 | > 30 µM | > 30 µM | 
10 | Cc1nc2nc(N3CCNCC3)nn2c(-c2ccc(Cl)cc2Cl)c1CN | > 30 µM | > 30 µM | 
11 | Cc1cc2nc(C)c(CN)c(-c3ccc(Cl)cc3Cl)n2n1 | > 30 µM | > 30 µM | 
12 | Cc1nc2nc(N3CCCC3)nn2c(-c2ccc(Cl)cc2Cl)c1CN | > 30 µM | > 10 µM | 
13 | Cc1nc2nc(N3CCSCC3)nn2c(-c2ccc(Cl)cc2Cl)c1CN | > 30 µM | > 30 µM | 
14 | Cc1nc2cc(-c3ccco3)nn2c(-c2ccc(Cl)cc2Cl)c1CN | > 30 µM | > 30 µM | 
15 | Cc1nc2nc(C)c(CN)c(-c3ccc(Cl)cc3Cl)n2n1 | > 30 µM | > 30 µM | 

Further lines, with some results ahead:

Row | Ki (Dipeptidyl peptidase 9) | Ki (Dipeptidyl peptidase 8) | Structure (SMILES) | also measured
16 | > 30 µM |  | Cc1nc2nc(N3CCOCC3)nn2c(-c2ccc(Cl)cc2Cl)c1CN | 
17 | > 30 µM | > 30 µM | CCC(=O)c1cnn2c(-c3ccc(Cl)cc3Cl)c(CN)c(C)nc12 | 
18 | > 30 µM | > 30 µM | Cc1nc2c(-c3ccccc3)cnn2c(-c2ccc(Cl)cc2Cl)c1CN | 
19 | > 10 µM |  | COc1ccccc1-c1cn2c(-c3ccc(Cl)cc3Cl)c(CN)c(C)nc2n1 | 
20 | > 10 µM | > 30 µM | Cc1ccc(-c2cc3nc(C)c(CN)c(-c4ccc(Cl)cc4Cl)n3n2)cc1 | 
21 | > 10 µM |  | Cc1nc2nc(C(=O)Nc3ccccc3)nn2c(-c2ccc(Cl)cc2Cl)c1CN | 
22 | > 20 µM | > 30 µM | Cc1nc2cc(-c3ccccc3)nn2c(-c2ccc(Cl)cc2Cl)c1CN | inhibition (INH) [1]: 95%; IC50 (Cytochrome P450 3A4): 1 µM; IC50 (Cytochrome P450 2C9): 12 µM; IC50 (Cytochrome P450 2C19): 3 µM; IC50 (Cytochrome P450 1A2): 6 µM
